Results on 1 molecule are retold here after BindingDB's records for doi:10.1016/j.bmcl.2007.02.059 (Johnson & Johnson Pharmaceutical Research & Development, 2007).

The nature of assay [1]: Inhibition of human Rsk2.
The nature of assay [2]: Inhibition of human Rsk3.

In general, IC50 refers to the concentration that inhibits the measured activity by half. The low end stands for greater potency in that assay, the high end for weaker potency in that assay.

`CN(C)c1nc2ccc1CCCn1cc(c3ccccc31)C1=C(C(=O)NC1=O)c1cn(c3ccccc13)CC2`: the results for the IC50 in assay [1] and in assay [2] were 850 nM and 48 nM, respectively.
